One block for each molecule: values may come before it.
Assays:
[1] = cited from earlier work
[2] = Solubility in purified water; details: vortex 5 minutes
Description: Respective salt and base forms of betamethasone and dexamethasone were weighed and transferred in the glass test tube.

[3] = test system: neurological symptoms in ataxia telangiectasia; details: 0.1 mg/kg/day, cited from earlier work
[4] = test system: ataxia symptoms in children with AT; details: cited from earlier work
[5] = comparison among glucocorticoids; cited from earlier work

Solubility in purified water ([2]; Concentration 0.25 mg/0.14 ml): Soluble
Solubility in purified water ([2]; Concentration 0.50 mg/0.14 ml): Soluble
Solubility in purified water ([2]; Concentration 1.00 mg/0.14 ml): Soluble
Solubility in purified water ([2]; Concentration 1.50 mg/0.14 ml): Soluble
Solubility in purified water ([2]; Concentration 2.00 mg/0.14 ml): Soluble
Solubility in purified water ([2]; Concentration 4.00 mg/0.14 ml): Soluble
Solubility in purified water ([2]; Concentration 8.00 mg/0.14 ml): Soluble
Structure (SMILES): C[C@H]1CC2C3CCC4=CC(=O)C=C[C@]4(C)[C@@]3(F)[C@@H](O)C[C@]2(C)[C@@]1(O)C(=O)COP(=O)(O)O (stereo partly drawn) [Betamethasone disodium phosphate, 9-Fluoro-11β,17,21-trihydroxy-16β-methylpregna-1,4-diene-3,20-dione 21-(disodium phosphate)]
solubility (in words) [1]: soluble
stability in aqueous solution ([1]; strongly influenced by storage temperature): very low

Structure (SMILES): C[C@@H]1C[C@H]2[C@@H]3CCC4=CC(=O)C=C[C@]4(C)[C@@]3(F)[C@@H](O)C[C@]2(C)[C@@]1(O)C(=O)COP(=O)([O-])[O-].[Na+].[Na+] [Dexamethasone disodium phosphate]
Solubility in purified water ([2]; Concentration 1.00 mg/0.14 ml): Soluble
Solubility in purified water ([2]; Concentration 2.00 mg/0.14 ml): Soluble
Solubility in purified water ([2]; Concentration 4.00 mg/0.14 ml): Soluble
Solubility in purified water ([2]; Concentration 8.00 mg/0.14 ml): Soluble

Solubility in purified water ([2]; Concentration 0.25 mg/0.14 ml): Not Soluble
Structure (SMILES): C[C@@H]1C[C@H]2[C@@H]3CCC4=CC(=O)C=C[C@]4(C)[C@@]3(F)[C@@H](O)C[C@]2(C)[C@@]1(O)C(=O)CO [dexamethasone]

Structure (SMILES): C[C@H]1C[C@H]2[C@@H]3CCC4=CC(=O)C=C[C@]4(C)[C@@]3(F)[C@@H](O)C[C@]2(C)[C@@]1(O)C(=O)CO [betamethasone]
change in phenotypic appearance (adverse effect) ([3]; 4 weeks): moon face
body weight at 4 weeks ([3]; from 15.5 kg): 19.0 kg
patients with moon face ([4]; 13 children): 8 patients
patients with small increases in body weight ([4]; 13 children): 12 patients
adverse events in the trial ([4]; in vivo): minimal
Solubility in purified water ([2]; Concentration 0.25 mg/0.14 ml): Not Soluble

Structure (SMILES): C[C@]12CCC(=O)C=C1CC[C@@H]1[C@@H]2[C@@H](O)C[C@@]2(C)[C@H]1CC[C@]2(O)C(=O)CO [hydrocortisone]
equivalent mg dosage [5]: 20 mg

Structure (SMILES): C[C@]12C=CC(=O)C=C1CC[C@H]1[C@@H]3C[C@@H](O)[C@](O)(C(=O)CO)[C@@]3(C)C[C@H](O)[C@@]12F [triamcinolone]
equivalent mg dosage [5]: 4 mg

Structure (SMILES): C[C@]12C=CC(=O)C=C1CC[C@@H]1[C@@H]2[C@@H](O)C[C@@]2(C)[C@H]1CC[C@]2(O)C(=O)CO [prednisolone]
equivalent mg dosage [5]: 5 mg

— patent publication US11291672B2, “Betamethasone oral spray formulation and method of use to treat ataxia” (GRACE THERAPEUTICS LLC, priority 2016, dated 2022)
